Like-named read-outs stand apart in the source and are kept apart here.
Key:
[1] = system: Substance P Induced Relaxation of the Pig Coronary Arteries; assay: Antagonism of substance P induced relaxation of the pig coronary arteries; conditions: 30 min incubation
Experimental: Antagonism of Substance P Induced Relaxation of the Pig Coronary Arteries
Segments of coronary arteries taken from pigs (killed by injection of an overdose of sodium pentobarbital) were inverted and mounted for recording of isometric tension in organ baths (volume 20 ml) with the endothelium at the outside. The preparations were bathed in Krebs-Henseleit solution. The solution was kept at 37° C. and gassed with a mixture of O2 /CO2 (95/5). After stabilisation of the preparations, prostaglandin F2α (10^-5 M) was administered to induce a contraction. This was repeated until contractile responses became stable. Then prostaglandin F2α was again administered and substance P (3×10^-10 M and 10^-9 M cumulatively) was added. Substance P induced endothelium dependent relaxations. After washing away the agonists, a known concentration of a compound of formula (I) was added. After an incubation period of 30 minutes, prostaglandin F2α (10^-5 M) and the same concentrations of substance P as described above were again administered in the presence of the compound to be tested.

[2] = system: Substance P Induced Plasma Extravasation; assay: Antagonism of substance P induced plasma extravasation in guinea-pigs; format: in vivo, guinea-pig; conditions: Cavia porcellus, 1 hour prior to substance P
Experimental: Antagonism of Substance P Induced Plasma Extravasation in Guinea-pigs
Plasma travasation was induced by injection of substance P (2 mg/kg) in the femoral artery of female guinea-pigs. Evans Blue dye (30 mg/kg) was injected simultaneously. The test compound or solvent was administered subcutaneous (s.c.) or orally (p.o.) 1 hour prior to substance P injection. 10 minutes after challenge, the animals were checked for blue colouring (a direct measure for plasma extravasation) of the nose, the forepaws, and the conjunctiva. 30 minutes after challenge, the animals were sacrificed by CO2 gas inhalation and checked for blue colouring of the trachea and the urinary bladder. […]

[3] = test compound concentration 3 × 10^-9 (unit not given)
[4] = sc, 10 min, s.c., conjunctiva, read-out: lowest active dose (LAD), conjunctiva
[5] = sc, 10 min, s.c., forepaws, read-out: lowest active dose (LAD), forepaws
[6] = sc, 10 min, s.c., nose, read-out: lowest active dose (LAD), nose
[7] = sc, 0.5 h, s.c., trachea, read-out: lowest active dose (LAD), trachea
[8] = sc, 0.5 h, s.c., urinary bladder, read-out: lowest active dose (LAD), urinary bladder
[9] = po, 10 min, p.o., conjunctiva, read-out: lowest active dose (LAD), conjunctiva
[10] = po, 10 min, p.o., forepaws, read-out: lowest active dose (LAD), forepaws
[11] = po, 10 min, p.o., nose, read-out: lowest active dose (LAD), nose
[12] = po, 0.5 h, p.o., trachea, read-out: lowest active dose (LAD), trachea
[13] = po, 0.5 h, p.o., urinary bladder, read-out: lowest active dose (LAD), urinary bladder

| SMILES | % inhibition of the response to 10^-9 M substance P [1, 3] | minimal effective dose [2, 4] | minimal effective dose [2, 5] | minimal effective dose [2, 6] | minimal effective dose [2, 7] | minimal effective dose [2, 8] | minimal effective dose [2, 9] | minimal effective dose [2, 10] | minimal effective dose [2, 11] | minimal effective dose [2, 12] | minimal effective dose [2, 13] | % inhibition of the response to 10^-9 M substance P ([1]; test compound concentration 3 × 10^-8 (unit not given)) |
| --- | --- | --- | --- | --- | --- | --- | --- | --- | --- | --- | --- | --- |
| Cc1cc(C)cc(C(=O)N2CCC(N3CCC(C4c5ccccc5Cn5ccnc54)CC3)CC2Cc2ccccc2)c1 (stereo not drawn) [Compound 108] | 2.6% | 10 mg/kg | 10 mg/kg | 10 mg/kg | 10 mg/kg | 10 mg/kg | – | – | – | – | – | – |
| O=C(c1cc(C(F)(F)F)cc(C(F)(F)F)c1)N1CC[C@@H](N2CCC(=C3c4ccccc4CCn4c(CO)cnc43)CC2)C[C@@H]1Cc1ccccc1 (relative stereo) [Compound 5] | 100.0% | – | – | – | – | – | 2.5 mg/kg | 2.5 mg/kg | 2.5 mg/kg | 10 mg/kg | 10 mg/kg | – |
| Cc1cc(C)cc(C(=O)N2CC[C@@H](N3CCC(C4c5ccccc5CCn5ccnc54)CC3)C[C@H]2Cc2ccccc2)c1 (stereo partly drawn) [Compound 26] | 25.6% | 10 mg/kg | 10 mg/kg | 10 mg/kg | 10 mg/kg | 10 mg/kg | – | – | – | – | – | – |
| COC(=O)c1cnc2n1CCc1ccccc1C2=C1CCN([C@H]2CCN(C(=O)c3cc(C(F)(F)F)cc(C(F)(F)F)c3)[C@@H](Cc3ccccc3)C2)CC1 (racemic) [Compound 17, (±)-methyl cis-11-[1-[1-[3,5-bis(trifluoromethyl)benzoyl]-2-(phenylmethyl)-4-piperidinyl]-4-piperidinylidene]-6,11-dihydro-5H-imidazo[2,1-b][3]benzazepine-3-carboxylate] | 35.3% | – | – | – | – | – | 10 mg/kg | 10 mg/kg | 10 mg/kg | 10 mg/kg | 10 mg/kg | – |
| Cc1cc(C)cc(C(=O)N2CC[C@H](N3CCC(=C4c5ccsc5C(=O)Cn5ccnc54)CC3)C[C@@H]2Cc2ccccc2)c1 (relative stereo) [Compound 111] | 22.6% | 10 mg/kg | 10 mg/kg | 10 mg/kg | 10 mg/kg | 10 mg/kg | – | – | – | – | – | – |
| O=C1Cn2ccnc2C(=C2CCN([C@H]3CCN(C(=O)c4cc(C(F)(F)F)cc(C(F)(F)F)c4)[C@@H](Cc4ccccc4)C3)CC2)c2ccsc21 (relative stereo) [Compound 106] | 92.3% | – | – | – | – | – | 10 mg/kg | 10 mg/kg | 10 mg/kg | 10 mg/kg | 10 mg/kg | – |
| O=C(c1cc(C(F)(F)F)cc(C(F)(F)F)c1)N1CC[C@H](N2CCC(=C3c4ccccc4OCn4ccnc43)CC2)C[C@@H]1Cc1ccccc1 (relative stereo) [Compound 113] | 87.9% | 10 mg/kg | 10 mg/kg | 10 mg/kg | 10 mg/kg | 10 mg/kg | – | – | – | – | – | – |
| Cc1cc(C)cc(C(=O)N2CC[C@H](N3CCC(=C4c5ccsc5CCn5ccnc54)CC3)C[C@H]2Cc2ccccc2)c1 (relative stereo) [Compound 39] | 42.9% | 2.5 mg/kg | 2.5 mg/kg | 2.5 mg/kg | 10 mg/kg | 10 mg/kg | – | – | – | – | – | – |
| Cc1cnc2n1CCc1ccccc1C2=C1CCN([C@H]2CCN(C(=O)c3cc(C(F)(F)F)cc(C(F)(F)F)c3)[C@@H](Cc3ccccc3)C2)CC1 (relative stereo) [Compound 53] | 44.4% | 10 mg/kg | 10 mg/kg | 10 mg/kg | 10 mg/kg | 10 mg/kg | – | – | – | – | – | – |
| Cc1cc(C)cc(C(=O)N2CC[C@@H](N3CCC(=C4c5ccccc5CCn5c(CO)cnc54)CC3)C[C@@H]2Cc2ccccc2)c1 (relative stereo) [Compound 20] | 9.5% | 2.5 mg/kg | 2.5 mg/kg | 2.5 mg/kg | 2.5 mg/kg | 2.5 mg/kg | – | – | – | – | – | – |
| O=C(c1cc(C(F)(F)F)cc(C(F)(F)F)c1)N1CC[C@@H](N2CCC(=C3c4ccsc4CCn4ccnc43)CC2)C[C@@H]1Cc1ccccc1 (relative stereo) [Compound 19] | 78.1% | 2.5 mg/kg | 2.5 mg/kg | 2.5 mg/kg | 2.5 mg/kg | 10 mg/kg | – | – | – | – | – | – |
| O=C(c1cc(C(F)(F)F)cc(C(F)(F)F)c1)N1CC[C@@H](N2CCC(=C3c4ccccc4CCn4ccnc43)CC2)C[C@@H]1Cc1ccccc1 (relative stereo) [Compound 22] | 83.2% | 10 mg/kg | 10 mg/kg | 10 mg/kg | 10 mg/kg | 10 mg/kg | – | – | – | – | – | – |
| O=Cc1cnc2n1CCc1ccccc1C2=C1CCN([C@H]2CCN(C(=O)c3cc(C(F)(F)F)cc(C(F)(F)F)c3)[C@@H](Cc3ccccc3)C2)CC1 (racemic) [Compound 11, (±)-cis-1-[3,5-bis(trifluoromethyl)benzoyl]-4-[4-(3-formyl-5,6-dihydro-11H-imidazo[2,1-b][3]benzazepin-11-ylidene)-1-piperidinyl]-2-(phenylmethyl)piperidine] | 96.1% | – | – | – | – | – | 10 mg/kg | 10 mg/kg | 10 mg/kg | 10 mg/kg | 10 mg/kg | – |
| O=C(c1cc(C(F)(F)F)cc(C(F)(F)F)c1)N1CC[C@H](N2CCC(=C3c4ccccc4CCn4c3nc(CO)c4CO)CC2)C[C@@H]1Cc1ccccc1 (relative stereo) [Compound 52] | 77.8% | 2.5 mg/kg | 2.5 mg/kg | 2.5 mg/kg | 10 mg/kg | 2.5 mg/kg | – | – | – | – | – | – |
| O=C(c1cc(C(F)(F)F)cc(C(F)(F)F)c1)N1CC[C@@H](N2CCC(C3c4ccccc4Cn4c3nc3ccccc34)CC2)C[C@H]1Cc1ccccc1 (mixture of isomers) [Compound 14, (±)-cis-1-[3,5-bis(trifluoromethyl)benzoyl]-4-[4-(6,11-dihydrobenzimidazo[1,2-b]isoquinolin-6-yl)-1-piperidinyl]-2-phenylmethyl)piperidine] | 56.6% | – | – | – | – | – | 10 mg/kg | 10 mg/kg | 10 mg/kg | 10 mg/kg | 10 mg/kg | – |
| O=C(c1cc(C(F)(F)F)cc(C(F)(F)F)c1)N1CC[C@H](N2CCC(=C3c4ccccc4CCn4c(CO)cnc43)CC2)C[C@@H]1Cc1ccccc1 (racemic) [Compound 4, (±)-cis-1-[3,5-bis(trifluoromethyl)benzoyl]-4-[4-[5,6-dihydro-3-(hydroxymethyl)-11H-imidazo[2,1-b][3]benzazepin-11-ylidene]-1-piperidinyl]-2-(phenylmethyl)piperidine] | – | 10 mg/kg | 10 mg/kg | 10 mg/kg | 10 mg/kg | 10 mg/kg | – | – | – | – | – | 97.0% |
